This experiment has as its system MDA-MB-231 complex spheroid viability. As to the kind of experiment: Anticancer human tumor MDA-MB-231/ATCC cell line growth inhibition.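 On all read-outs here: drug exposure lasted 7 days starting on day 3 of spheroid growth.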 The note with it: for viability, T/C: stronger effect = lower value. Put shortly: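 Multicellular complex spheroids of tumor cells with human endothelial cells (HUVEC) and mesenchymal stem cells; the LSD1 inhibitor iadademstat was combined with standard-of-care or investigational agents. Top concentration at or near clinical Cmax, half-log dilutions; final DMSO ≤0.25%.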

The mark [1] stands for this setting: curve of first compound, second compound 0.1 µM.
The mark [2] stands for this setting: curve of first compound, second compound 0.316 µM.
[3] abbreviates: curve of first compound, second compound 1 µM.
[4] abbreviates: curve of first compound, second compound 3.16 µM.
[5] abbreviates: curve of first compound, second compound 10 µM.
Setting [6] is: second compound 0.1 µM, first compound 0.0316 µM.
Setting [7] is: second compound 0.1 µM, first compound 0.1 µM.
Where [8] appears, read: second compound 0.1 µM, first compound 0.316 µM.
[9] abbreviates: second compound 0.1 µM, first compound 1 µM.
[10] abbreviates: second compound 0.1 µM, first compound 3.16 µM.
Where [11] appears, read: second compound 0.1 µM, first compound 10 µM.
Setting [12] is: second compound 0.316 µM, first compound 0.0316 µM.
Where [13] appears, read: second compound 0.316 µM, first compound 0.1 µM.
[14] abbreviates: second compound 0.316 µM, first compound 0.316 µM.
Where [15] appears, read: second compound 0.316 µM, first compound 1 µM.
Where [16] appears, read: second compound 0.316 µM, first compound 3.16 µM.
The mark [17] stands for this setting: second compound 0.316 µM, first compound 10 µM.
The mark [18] stands for this setting: second compound 1 µM, first compound 0.0316 µM.
[19] abbreviates: second compound 1 µM, first compound 0.1 µM.
Where [20] appears, read: second compound 1 µM, first compound 0.316 µM.
Where [21] appears, read: second compound 1 µM, first compound 1 µM.
[22] abbreviates: second compound 1 µM, first compound 3.16 µM.
Setting [23] is: second compound 1 µM, first compound 10 µM.
Setting [24] is: second compound 3.16 µM, first compound 0.0316 µM.
The mark [25] stands for this setting: second compound 3.16 µM, first compound 0.1 µM.
Where [26] appears, read: second compound 3.16 µM, first compound 0.316 µM.
[27] abbreviates: second compound 3.16 µM, first compound 1 µM.
[28] abbreviates: second compound 3.16 µM, first compound 3.16 µM.
Where [29] appears, read: second compound 3.16 µM, first compound 10 µM.
Where [30] appears, read: second compound 10 µM, first compound 0.0316 µM.
[31] abbreviates: second compound 10 µM, first compound 0.1 µM.
[32] abbreviates: second compound 10 µM, first compound 0.316 µM.
Where [33] appears, read: second compound 10 µM, first compound 1 µM.
The mark [34] stands for this setting: second compound 10 µM, first compound 3.16 µM.
The mark [35] stands for this setting: second compound 10 µM, first compound 10 µM.

In general, IC50 refers to the concentration that gives 50% inhibition. The term viability, T/C denotes the ratio of treated to control.

Where “and” joins values, the source holds several entries; their conditions need not be identical. Equal entries are not always repeated.

For `CC1COCCN1c1cc(C2(S(C)(=N)=O)CC2)nc(-c2ccnc3[nH]ccc23)n1` (centres undefined) + NC1CCC(NC2CC2c2ccccc2)CC1, the IC50 by setting is: under setting [1], 1180 nM; under setting [2], 1460 nM; under setting [3], 1530 nM; under setting [4], 1180 nM; under setting [5], 1010 nM. The viability, T/C runs as follows: under setting [6], 103%; under setting [7], 99.2%; under setting [8], 82.5%; under setting [9], 51.1%; under setting [10], 38.1%; under setting [11], 29.4%. The viability, T/C under setting [12] is 111%; the viability, T/C under setting [13] was 109%; the viability, T/C under setting [14] was 81.6%; the viability, T/C under setting [15] is 59.2%; the viability, T/C under setting [16] is 34.9%; the viability, T/C under setting [17] was 29.3%. Further, the viability, T/C reads like this: under setting [18], 109%; under setting [19], 100%; under setting [20], 79.5%; under setting [21], 56%; under setting [22], 40%; under setting [23], 30.3%. For the same molecule, the viability, T/C was 95% under setting [24]; 87% under setting [25]; 69.7% under setting [26]; 53% under setting [27]; 37.9% under setting [28]; 33.3% under setting [29]. Further, the viability, T/C under setting [30] is 72.4%; the viability, T/C under setting [31] was 68.2%; the viability, T/C under setting [32] is 59.5%; the viability, T/C under setting [33] was 48.1%; the viability, T/C under setting [34] was 42.4%; the viability, T/C under setting [35] was 32.3%.
With `CC1(C)CCC(CN2CCN(c3ccc(C(=O)NS(=O)(=O)c4ccc(NCC5CCOCC5)c([N+](=O)[O-])c4)c(Oc4cnc5[nH]ccc5c4)c3)CC2)=C(c2ccc(Cl)cc2)C1` + NC1CC1c1ccc(-c2cccc(O)c2)cc1, the half-inhibitory concentration (IC50) reads like this: under setting [1], 4480 nM; under setting [2], 4290 nM; under setting [3], 4430 nM; under setting [4], 4280 nM; under setting [5], below 31.6 nM. Also, the viability, T/C under setting [6] is 90.9%; the viability, T/C under setting [7] was 93%; the viability, T/C under setting [8] is 94.5%; the viability, T/C under setting [9] was 112%; the viability, T/C under setting [10] was 71.2%; the viability, T/C under setting [11] is 1.41%. In addition, the viability, T/C by setting is: under setting [12], 74.1%; under setting [13], 78.6%; under setting [14], 82.1%; under setting [15], 77.9%; under setting [16], 67.6%; under setting [17], 1.16%. Moreover, the viability, T/C runs as follows: under setting [18], 75.2%; under setting [19], 70%; under setting [20], 76.7%; under setting [21], 80.5%; under setting [22], 70%; under setting [23], 1.72%. Moreover, the viability, T/C was 68.2% under setting [24]; 70.2% under setting [25]; 78.8% under setting [26]; 79.4% under setting [27]; 67.1% under setting [28]; 1.48% under setting [29]. The viability, T/C under setting [30] was 48.5%; the viability, T/C under setting [31] is 42.5%; the viability, T/C under setting [32] was 48.5%; the viability, T/C under setting [33] is 55.3%; the viability, T/C under setting [34] was 45.6%; the viability, T/C under setting [35] is 0.6%.
`Nc1ncn(C2CC(O)C(CO)S2)c(=O)n1` (centres undefined) + NC1CCC(NC2CC2c2ccccc2)CC1: the half-inhibitory concentration (IC50) reads like this: under setting [1], 19.9 nM; under setting [2], 21.2 nM; under setting [3], 14.7 nM; under setting [4], 8.38 nM; under setting [5], 3.2 nM. The viability, T/C by setting is: (second compound 0.1 µM, first compound 0.000949 µM) 94.4%; (second compound 0.1 µM, first compound 0.003 µM) 78.2%; (second compound 0.1 µM, first compound 0.00949 µM) 63%; (second compound 0.1 µM, first compound 0.03 µM) 44.3%; (second compound 0.1 µM, first compound 0.0949 µM) 24.2%; (second compound 0.1 µM, first compound 0.3 µM) 12.3%. The viability, T/C is 93.2% (second compound 0.316 µM, first compound 0.000949 µM); 77.5% (second compound 0.316 µM, first compound 0.003 µM); 65.1% (second compound 0.316 µM, first compound 0.00949 µM); 46.4% (second compound 0.316 µM, first compound 0.03 µM); 21.9% (second compound 0.316 µM, first compound 0.0949 µM); 12% (second compound 0.316 µM, first compound 0.3 µM). Also, the viability, T/C reads like this: (second compound 1 µM, first compound 0.000949 µM) 95.2%; (second compound 1 µM, first compound 0.003 µM) 77.8%; (second compound 1 µM, first compound 0.00949 µM) 58.5%; (second compound 1 µM, first compound 0.03 µM) 37.7%; (second compound 1 µM, first compound 0.0949 µM) 19.5%; (second compound 1 µM, first compound 0.3 µM) 11.2%. Also, the viability, T/C was 77.2% (second compound 3.16 µM, first compound 0.000949 µM); 62.6% (second compound 3.16 µM, first compound 0.003 µM); 49.9% (second compound 3.16 µM, first compound 0.00949 µM); 32% (second compound 3.16 µM, first compound 0.03 µM); 17.9% (second compound 3.16 µM, first compound 0.0949 µM); 12% (second compound 3.16 µM, first compound 0.3 µM). The viability, T/C by setting is: (second compound 10 µM, first compound 0.000949 µM) 61.2%; (second compound 10 µM, first compound 0.003 µM) 50.1%; (second compound 10 µM, first compound 0.00949 µM) 37.6%; (second compound 10 µM, first compound 0.03 µM) 23.8%; (second compound 10 µM, first compound 0.0949 µM) 15.9%; (second compound 10 µM, first compound 0.3 µM) 12.6%.
Turning to `Nc1ccccc1NC(=O)c1ccc(CNC(=O)OCc2cccnc2)cc1`, the viability, T/C runs as follows: (compound 0.00949 µM) 81.5% and 86.7%; (compound 0.03 µM) 56.5% and 52.2%; (compound 0.0949 µM) 39.4% and 21.1%; (compound 0.3 µM) 28.1% and 12.2%; (compound 0.949 µM) 15.4% and 4.07%; (compound 3 µM) 3.56% and 0.18%. Moreover, the IC50 (curve of compound) was 53.2 nM and 31.4 nM.
For the molecule `O=C(c1cc(Cc2n[nH]c(=O)c3ccccc23)ccc1F)N1CCN(C(=O)C2CC2)CC1`, the viability, T/C reads like this: (compound 0.0316 µM) 92.4% and 88.5%; (compound 0.1 µM) 97.9% and 79.2%; (compound 0.316 µM) 85.6% and 79.3%; (compound 1 µM) 72.1% and 69.9%; (compound 3.16 µM) 68.6% and 53.2%; (compound 10 µM) 56.6% and 32.6%. Besides, the 50% inhibitory concentration (IC50) (curve of compound) was > 10000 nM and 3920 nM.

Values taken from PubChem BioAssay AID1918953 (Molecular Pharmacology Branch, DTP, NCI, 2023).
